Measured values taken from US9611292B2, “Peptide inhibitors of serotonin 5-HT2c receptors:PTEN interaction” (THE BOARD OF REGENTS OF THE UNIVERSITY OF TEXAS SYSTEM, priority 2011, dated 2017).
Entries after “also recorded” stand apart in the source; their conditions may differ.

Key:
rats = assay: 1-choice serial reaction time task, impulsive action (premature responses); format: in vivo, rat; settings: 1-choice serial reaction time task, single agent
From the text: FIG. 23 illustrates additional behavioral effects of TAT-3L4F.

5-HT2CR = assay: Cai++ release in 5-HT2CR-CHO cells; format: cell-based
From the text: (§1) The 5-HT2CR:PTEN complex occurs in rat brain regions implicated in palatable food reward. […] These cells have been employed for 5-HT2CR signaling studies. […] Providing 3L4F and fragments thereof disrupt the complex in the cell and result in the lack of co-localization of the molecules by immunohistochemistry or by immunoprecipitation studies. 5-HT2CR and PTEN can be co-immunoprecipitated from brain tissue samples. Additional studies using the split luciferase assay also detect direct coupling of 5-HT2CR with PTEN.
Functional analysis of the complex was investigated using Cai^++ release in 5-HT2CR-CHO cells. […] The studies have shown that the 3L4F peptide enhances Cai^++ release via a 5-HT2CR specific mechanism acting down stream ligand binding.
FIG. 15 compares the efficacy of derivatives 210 and A1 in terms of % 1 nM 5-HT induced Cai^++ release in 5-HT2CR-CHO cells. FIG. 16 compares the efficacy of derivatives 210 and A2 in terms of % 1 nM 5-HT induced Cai^++ Release in 5-HT2CR-CHO cells. FIG. 17 compares the efficacy of derivatives 210 and A3 in terms of % 1 nM 5-HT induced Cai^++ release in 5-HT2CR-CHO cells. FIG. 18 compares the efficacy of derivatives 210 and A4 in terms of % 1 nM 5-HT induced Cai^++ release in 5-HT2CR-CHO cells. FIG. 19 compares the efficacy of derivatives 210 and A5 in terms of % 1 nM 5-HT induced Cai^++ release in 5-HT2CR-CHO cells. FIG. 20 compares the efficacy of derivatives 210 and A6 in terms of % 1 nM 5-HT induced Cai^++ release in 5-HT2CR-CHO cells. FIG. 21 compares the efficacy of derivatives 210 and A8 in terms of % 1 nM 5-HT induced […] release in 5-HT2CR-CHO cells.

5-HT2CR:PTEN complex = assay: in situ localization (immunohistochemistry / immunoprecipitation) of 5-HT2CR:PTEN association in cells; format: cell-based; settings: for disrupting activity on 5-HT2CR:PTEN association: summary statement, assay not specified
From the text: as §1
Peptides described herein enhance 5-HT2CR signaling and peptide disruption of the serotonin (5-HT) 5-HT2CR interaction with protein phosphatase and tensin (PTEN). This interaction is functionally important to the 5-HT2CR signalosome.

5-HT2AR = target: T1, 5-HT2AR (Homo sapiens, UniProt P28223); assay: Cai++ release in 5-HT2AR-CHO cells; format: cell-based
T1 construct: expressed in transfected cells; host or cells: CHO
T1 sequence (P28223 whole entry): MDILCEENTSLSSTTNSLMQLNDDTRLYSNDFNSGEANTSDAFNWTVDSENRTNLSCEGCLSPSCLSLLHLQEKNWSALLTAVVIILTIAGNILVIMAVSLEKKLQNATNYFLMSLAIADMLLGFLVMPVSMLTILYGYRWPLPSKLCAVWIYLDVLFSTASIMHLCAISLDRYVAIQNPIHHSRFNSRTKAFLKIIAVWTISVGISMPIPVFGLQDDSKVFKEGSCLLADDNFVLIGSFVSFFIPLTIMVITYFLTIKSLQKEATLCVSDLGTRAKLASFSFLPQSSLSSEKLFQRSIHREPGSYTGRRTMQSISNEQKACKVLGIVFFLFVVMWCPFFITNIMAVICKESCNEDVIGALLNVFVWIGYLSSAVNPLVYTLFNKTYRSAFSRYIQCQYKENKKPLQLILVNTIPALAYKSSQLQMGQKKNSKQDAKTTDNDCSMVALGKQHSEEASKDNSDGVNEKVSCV

5-HT2CR:PTEN interaction = assay: split luciferase assay of direct 5-HT2CR:PTEN interaction in live cells; format: cell-based
From the text: In addition split luciferase assays were used to detect direct coupling of 5-HT2CR with PTEN.

Compound | 5-HT (1 nM) induced Cai++ release (5-HT2CR) | disrupting activity on 5-HT2CR:PTEN association (5-HT2CR:PTEN complex) | further results
c1cc2c3c(c1)[C@H]1CCC[C@H]1N3CCNC2 [WAY163909] |  |  | impulsive action (premature responses), agent alone (rats): neither of which have effects on their own
PNQDQNAR [derivative 210] | retain 3L4F activity; also recorded: increase | active fragment | 
PNQDQNARRRKKKERR [3L4F] | increases | disrupter | WAY163909 induced Cai++ release (5-HT2CR; selective orthosteric 5-HT2CR agonist WAY163909): potentiates; 3L4F-enhanced 5-HT induced Cai++ release, effect of 5-HT2CR antagonist (5-HT2CR; with 5-HT2CR antagonist): inhibits; 5-HT induced Cai++ release (5-HT2AR): does not alter; association of 5-HT2CR and PTEN (5-HT2CR:PTEN complex; quantitation of in situ localization studies): disrupts the association; direct 5-HT2CR:PTEN interaction (5-HT2CR:PTEN interaction; NLuc fused to 3rd intracellular loop of 5-HT2CR, CLuc fused to PTEN): disrupts; direct 5-HT2CR:PTEN interaction (5-HT2CR:PTEN interaction; NLuc fused to full length 5-HT2CR): disrupts
QNARRRKK [derivative 212] | less efficacious than 3L4 F | less disrupting activity than the 210 fragment | 
RRKKKERR [derivative 214] | less efficacious than 3L4 F | less disrupting activity than the 210 fragment | 
V27-R45: 5-HT2CR N-terminus peptide fragment V27-R45 (VSPVAAIVTDIFNTSDGGR) [reference compound] | inactive |  | 
